Values belong to the compound of their own block, whether it stands above or below them.
Assay: solvent given as SMILES

fluorescence lifetime (in CC#N): 0.23 ns | fluorescence lifetime (in CCCCCC): 0.2 ns
Structure (SMILES): Nc1ccc(/C=C/c2ccc3ccccc3c2)cc1

fluorescence lifetime (in C1CCOC1): 0.54 ns
Structure (SMILES): Cc1cc(C2=C(c3c(C)sc(-c4ccc(-c5nc(-c6ccccc6)c(-c6ccccc6)[nH]5)cc4)c3C)C(F)(F)C(F)(F)C2(F)F)c(C)s1

fluorescence lifetime (in ClCCl): 6.5 ns
Structure (SMILES): Cc1csc2[n+]1[B-](F)(F)n1c(c3cccc4cccc1c43)=N2

fluorescence lifetime (in ClCCl): 1.73 ns
Structure (SMILES): CCOc1cccc2c1O[B-](F)(F)[n+]1c3c(c4c(c1-2)-c1ccccc1CC4)-c1ccccc1CC3

fluorescence lifetime (in CCOC(C)=O): 2.41 ns
Structure (SMILES): C[Si](C)(C)c1cc2c(cc3ccc4cccc5ccc2c3c45)[nH]1

fluorescence lifetime (in ClCCl): 8.2 ns
Structure (SMILES): COc1ccc(Nc2nc(/C=C/c3ccccc3)[n+]([O-])c3c2CCCC3)cc1

fluorescence lifetime (in c1cc(-c2cccc(-n3c4ccccc4c4ccccc43)c2)cc(-n2c3ccccc3c3ccccc32)c1): 24 ns
Structure (SMILES): O=C(c1ccc(N2c3ccccc3Oc3ccccc32)cc1)c1cccc(C(=O)c2ccc(N3c4ccccc4Oc4ccccc43)cc2)c1

fluorescence lifetime (in ClC(Cl)Cl): 8.07 ns
Structure (SMILES): CCN(CC)/C(C)=N\c1ccc2c3c(cccc13)C(=O)c1ccccc1-2

fluorescence lifetime (in CC#N): 0.2 ns
Structure (SMILES): Cc1cccc(C)c1Nc1ccc(/C=C/c2ccc3ccccc3c2)cc1

fluorescence lifetime (in ClCCl): 5.9 ns
Structure (SMILES): C[Si]1(C)c2ccc(-c3ccc(N(c4ccccc4)c4ccccc4)cc3)cc2C=Cc2cc(-c3ccc(N(c4ccccc4)c4ccccc4)cc3)ccc21

fluorescence lifetime (in ClCCl): 2.44 ns
Structure (SMILES): COC(=O)c1[nH]c(-c2ccc([N+](=O)[O-])cc2)c2nnc3ccc(OC)cc3c12

fluorescence lifetime (in CC#N): 4.3 ns | fluorescence lifetime (in c1ccccc1): 9.4 ns
Structure (SMILES): CNc1ccc2c(c1)-c1ccccc1C2=O

fluorescence lifetime (in ClCCl): 0.3 ns
Structure (SMILES): CC1=C(I)C(C)=[N+]2C1=C(c1c(-c3ccccn3)nc3ccccn13)c1c(C)cc(C)n1[B-]2(F)F

fluorescence lifetime (in CC#N): 4.18 ns | fluorescence lifetime (in CCO): 3.89 ns | fluorescence lifetime (in CN(C)C=O): 3.87 ns | fluorescence lifetime (in O): 4.07 ns
Structure (SMILES): CCN(CC)c1ccc2cc3ccc(=[N+](CC)CC)cc-3oc2c1

fluorescence lifetime (in ClCCl): 7.1 ns
Structure (SMILES): F[B-]1(F)n2c(c3cccc4cccc2c43)=Nc2cccc[n+]21

fluorescence lifetime (in CO): 22.1 ns
Structure (SMILES): CCOC(=O)CCCCCn1c2ccc(Cl)cc2c(=O)c2cc3c(cc21)c(=O)c1cc(Cl)ccc1n3CCCCCC(=O)OCC

fluorescence lifetime (in CC1CCCCC1): 2.6 ns | fluorescence lifetime (in CC#N): 0.088 ns
Structure (SMILES): C(=C\c1ccnc2ccccc12)/c1c2ccccc2cc2ccccc12

fluorescence lifetime (in C1CCOC1): 1.37 ns
Structure (SMILES): COc1ccc(C2=C(c3ccc(OC)cc3)[Si](c3ccccc3)(c3ccccc3)c3ccccc32)cc1

fluorescence lifetime (in CS(C)=O): 0.05 ns
Structure (SMILES): Cn1c(=O)c(/N=N/c2ccc(S(=O)(=O)O)c3ccccc23)c(O)c2ccccc21

fluorescence lifetime (in ClCCl): 1.86 ns
Structure (SMILES): COC(=O)c1cc(=O)n(Cc2ccccc2)c2cc(-c3ccc(N(C)C)cc3)sc12

fluorescence lifetime (in ClCCl): 4.27 ns
Structure (SMILES): C(#Cc1ccc2c(c1)c1cc(C#Cc3ccccc3)ccc1n2-c1cc2ccccc2c2ccccc12)c1ccccc1

fluorescence lifetime (in CCCCCC): 5.41 ns | fluorescence lifetime (in CCCCCCCCO): 5.13 ns | fluorescence lifetime (in CCOC(C)=O): 5.3 ns | fluorescence lifetime (in CN(C)C=O): 4.82 ns
Structure (SMILES): CC1=CC(C)=[N+]2C1=Cc1c3ccccc3c(C#Cc3ccccc3)n1[B-]2(F)F

fluorescence lifetime (in ClCCl): 5.14 ns
Structure (SMILES): CCOC(=O)COc1ccc(/C=C/c2cc(C)c3n2[B-](F)(F)[N+]2=C(c4[nH]c(C)cc4C)c4ccccc4C2=C3)cc1

fluorescence lifetime (in C1CCOC1): 2.24 ns
Structure (SMILES): Cc1csc2[n+]1[B-](F)(F)OC(c1ccc(N(C)C)cc1)=N2

fluorescence lifetime (in ClCCl): 9.47 ns
Structure (SMILES): O=c1oc2ccccc2cc1-c1ccc(-c2ccc(-c3cc4ccccc4oc3=O)cc2)cc1

fluorescence lifetime (in ClCCl): 0.45 ns
Structure (SMILES): O=[N+]([O-])c1ccc(O)c(-c2nc3c(c4c2-c2ccccc2CC4)-c2ccccc2CC3)c1

fluorescence lifetime (in ClC(Cl)Cl): 0.535 ns
Structure (SMILES): CCCCCCN1C(=O)c2cccc3c(-c4ccc(-c5ccc(-c6ccc7c8c(cccc68)C(=O)N(CCCCCC)C7=O)s5)s4)ccc(c23)C1=O

fluorescence lifetime (in ClCCl): 11.8 ns
Structure (SMILES): COc1ccc(C#Cc2c3cc4ccccc4cc3c(C#Cc3ccc(OC)cc3)c3cc4sc(C)cc4cc23)cc1

fluorescence lifetime (in ClCCl): 1.48 ns
Structure (SMILES): FC(F)(F)c1ccc(-c2ccc(-c3cc(-c4ccccn4)nc(-c4ccccn4)c3)cc2)cc1

fluorescence lifetime (in ClCCl): 2.68 ns
Structure (SMILES): c1ccc(N(c2ccccc2)c2ccc(-c3ccc(-c4cc(-c5ccccn5)nc(-c5ccccn5)c4)cc3)cc2)cc1

fluorescence lifetime (in CC1CCCCC1): 2.48 ns | fluorescence lifetime (in CC#N): 1.38 ns | fluorescence lifetime (in CC(C)CC(C)(C)C): 2.38 ns | fluorescence lifetime (in CC(C)O): 2.94 ns | fluorescence lifetime (in CCCCCC): 1.52 ns | fluorescence lifetime (in CCCCO): 3.7 ns | fluorescence lifetime (in CCO): 2.9 ns | fluorescence lifetime (in CO): 2.04 ns | fluorescence lifetime (in OCC(O)CO): 7.53 ns
Structure (SMILES): COc1c2ccccc2c(-c2ccccc2)c2ccccc12

Continued, compound first:

Structure (SMILES): CC1(C)OB(c2cc3ccc4cccc5ccc(c2)c3c45)OC1(C)C
fluorescence lifetime (in Cc1ccccc1): 82 ns

Structure (SMILES): Cc1ccc(/C2=C3N=C(C(c4ccccc4)=C/3c3ccccc3)/C(c3ccc(C)cc3)=c3\[nH]/c(c(-c4ccccc4)c3-c3ccccc3)=C(/c3ccc(C)cc3)C3=N/C(=C(/c4ccc(C)cc4)c4[nH]c2c(-c2ccccc2)c4-c2ccccc2)C(c2ccccc2)=C3c2ccccc2)cc1
fluorescence lifetime (in ClCCl): 0.472 ns

Structure (SMILES): c1cc2ccc3ccc4cc3c2cc1CCCCCCc1ccc2ccc3ccc-4cc3c2c1
fluorescence lifetime (in Cc1ccccc1): 8.7 ns

Structure (SMILES): CCOC(=O)C(C(=O)OCC)C1=[N+]2C(=C(c3ccc(C)cc3)c3ccc(Cl)n3[B-]2(F)F)C=C1
fluorescence lifetime (in C1CCCCC1): 2.69 ns | fluorescence lifetime (in C1CCOC1): 2.5 ns | fluorescence lifetime (in CCOC(C)=O): 2.31 ns | fluorescence lifetime (in CO): 2.02 ns | fluorescence lifetime (in Cc1ccccc1): 3.63 ns | fluorescence lifetime (in ClC(Cl)Cl): 3.67 ns

Structure (SMILES): COc1ccc(N(c2ccc(OC)cc2)c2ccc3ccc4c(B(c5c(C)cc(C)cc5C)c5c(C)cc(C)cc5C)ccc5ccc2c3c54)cc1
fluorescence lifetime (in C1CCOC1): 3.2 ns | fluorescence lifetime (in CC(C)=O): 0.7 ns | fluorescence lifetime (in CCCCCC): 6.2 ns | fluorescence lifetime (in Cc1ccccc1): 8.2 ns | fluorescence lifetime (in ClC(Cl)Cl): 8.5 ns | fluorescence lifetime (in ClCCl): 3.9 ns

Structure (SMILES): COc1ccc(O)c(-c2nc(C)c3n2CCCC3)c1
fluorescence lifetime (in ClCCl): 1.12 ns

Structure (SMILES): CN(C)c1ccc(/C=C/c2nc3c4ccccc4c4ccccc4c3[nH]2)cc1
fluorescence lifetime (in C1CCOC1): 0.341 ns | fluorescence lifetime (in C1COCCO1): 0.484 ns | fluorescence lifetime (in CC1CCCCC1): 0.471 ns | fluorescence lifetime (in CC#N): 0.356 ns | fluorescence lifetime (in CCOC(C)=O): 0.325 ns | fluorescence lifetime (in CCOCC): 0.391 ns | fluorescence lifetime (in CN(C)C=O): 0.37 ns | fluorescence lifetime (in COC(C)=O): 0.308 ns | fluorescence lifetime (in CS(C)=O): 0.384 ns | fluorescence lifetime (in Cc1ccccc1): 0.306 ns | fluorescence lifetime (in ClC(Cl)Cl): 0.138 ns

Structure (SMILES): O=S(=O)(c1ccc(-c2ccc3c(c2)c2ccccc2n3-c2ccccc2)cc1)c1ccc(-c2ccc3c(c2)c2ccccc2n3-c2ccccc2)cc1
fluorescence lifetime (in Cc1ccccc1): 1.51 ns

Structure (SMILES): COC(=O)[C@@]12N=N[C@@](C(=O)OC)(C3[C@H]1C3(C)C)[C@H]1[C@@H]2C1(C)C (stereo partly specified)
fluorescence lifetime (in CC#N): 101 ns

Structure (SMILES): CC(C)(C)c1ccc(-c2c3c(c(-c4ccc(C(C)(C)C)cc4)c4cc5ccccc5cc24)Cc2c(c(-c4ccc(C(C)(C)C)cc4)c4cc5ccccc5cc4c2-c2ccc(C(C)(C)C)cc2)C3)cc1
fluorescence lifetime (in ClCCl): 2.35 ns

Structure (SMILES): c1ccc(-c2cc(-c3nnc(-c4ccc(N5c6ccccc6Oc6ccccc65)cc4)o3)c(-c3ccccc3)c(-c3ccccc3)c2-c2ccccc2)cc1
fluorescence lifetime (in c1ccc(-n2c(-c3c(-n4c5ccccc5c5ccccc54)cccc3-n3c4ccccc4c4ccccc43)nc3ccccc32)cc1): 4.1 ns

Structure (SMILES): O=Cc1ccc(C#CC(C#Cc2ccc(C=O)s2)=Cc2ccc(C=C(C#Cc3ccc(C=O)s3)C#Cc3ccc(C=O)s3)cc2)s1
fluorescence lifetime (in ClC(Cl)Cl): 0.8 ns

Structure (SMILES): CC1(C)OB(c2cc3ccc4cc(B5OC(C)(C)C(C)(C)O5)cc5ccc(c2)c3c45)OC1(C)C
fluorescence lifetime (in Cc1ccccc1): 36 ns

Structure (SMILES): CCCCCCCCC1(CCCCCCCC)c2ccccc2-c2ccc(N(c3ccc(-n4c5ccccc5c5ccccc54)cc3)c3ccc4c(c3)C(CCCCCCCC)(CCCCCCCC)c3ccccc3-4)cc21
fluorescence lifetime (in C1CCOC1): 1.8 ns | fluorescence lifetime (in CC#N): 1.8 ns | fluorescence lifetime (in CC(C)=O): 1.75 ns | fluorescence lifetime (in CCCCCC): 1.68 ns | fluorescence lifetime (in CCCCOCCCC): 1.78 ns | fluorescence lifetime (in CCN(CC)CC): 1.69 ns | fluorescence lifetime (in CCOC(C)=O): 1.66 ns | fluorescence lifetime (in CCOCC): 1.97 ns | fluorescence lifetime (in CN(C)C=O): 1.87 ns | fluorescence lifetime (in Cc1ccccc1): 1.75 ns | fluorescence lifetime (in ClCCl): 1.62 ns

Structure (SMILES): c1ccc(N(c2ccccc2)c2ccc(N(c3ccccc3)c3ccc4ccc5c(N(c6ccccc6)c6ccc(N(c7ccccc7)c7ccccc7)cc6)ccc6ccc3c4c65)cc2)cc1
fluorescence lifetime (in ClCCl): 2.7 ns

Structure (SMILES): Cc1ccc2c(c1)C1(c3ccccc3Oc3ccccc31)c1cc(C)ccc1N2c1ccc(-c2ncccn2)cc1
fluorescence lifetime (in O=P(c1ccccc1)(c1ccccc1)c1ccc2oc3ccc(P(=O)(c4ccccc4)c4ccccc4)cc3c2c1): 11 ns

Structure (SMILES): Fc1cc(-c2nc(-c3ccccc3)nc(-c3ccccc3)n2)ccc1-n1c2ccccc2c2c3c(ccc21)C1(c2ccccc2-c2ccccc21)c1ccccc1-3
fluorescence lifetime (in O=P(c1ccccc1)(c1ccccc1)c1ccccc1Oc1ccccc1P(=O)(c1ccccc1)c1ccccc1): 8.3 ns

Structure (SMILES): N#CC(C#N)=C(c1ccc(-n2ccc3ccccc32)cc1)c1ccc(-n2ccc3ccccc32)cc1
fluorescence lifetime (in Cc1ccccc1): 5.2 ns

Structure (SMILES): CCOC(=O)CN1C(=O)C2=C(c3ccc(C#N)cc3)N(CC(=O)OCC)C(=O)C2=C1c1ccc(C#N)cc1
fluorescence lifetime (in CC#N): 6.67 ns | fluorescence lifetime (in CS(C)=O): 6.5 ns | fluorescence lifetime (in Cc1ccccc1): 6.48 ns

Structure (SMILES): Cc1cc(C)cc(NC(=O)c2sc(Br)nc2C)c1
fluorescence lifetime (in CO): 0.33 ns | fluorescence lifetime (in ClC(Cl)Cl): 0.18 ns

Structure (SMILES): CCCCCCC(CCCCCC)N1C(=O)c2cccc3c(-c4ccc(OC)cc4)ccc(c23)C1=O
fluorescence lifetime (in CCCCCC): 2.65 ns | fluorescence lifetime (in CCCCCCCCCCCCCC): 3.12 ns | fluorescence lifetime (in CCCCCCCCCCCO): 4.78 ns | fluorescence lifetime (in CCCCO): 5.18 ns | fluorescence lifetime (in CN(C)C=O): 5.24 ns | fluorescence lifetime (in Cc1ccccc1): 3.5 ns | fluorescence lifetime (in ClC(Cl)Cl): 4.11 ns

Structure (SMILES): C(=C\c1cc(-c2ccccc2)c(/C=C/c2ccc(N(c3ccccc3)c3ccccc3)cc2)cc1-c1ccccc1)/c1ccc(N(c2ccccc2)c2ccccc2)cc1
fluorescence lifetime (in ClCCl): 1.29 ns

Structure (SMILES): CC(C)(C)NC1=C2C=CC=[N+]2[B-](F)(F)n2cccc21
fluorescence lifetime (in C1CCCCC1): 6.17 ns | fluorescence lifetime (in CC(C)=O): 0.0272 ns | fluorescence lifetime (in CCO): 0.0307 ns | fluorescence lifetime (in CCOC(C)=O): 0.188 ns | fluorescence lifetime (in CO): 0.019 ns | fluorescence lifetime (in OCC(F)(F)F): 0.125 ns

Structure (SMILES): CCn1c2sccc2c2c3nsnc3c3c4ccsc4n(CC)c3c21
fluorescence lifetime (in C1CCOC1): 15 ns | fluorescence lifetime (in CCOC(C)=O): 15.6 ns | fluorescence lifetime (in CN(C)C=O): 16.8 ns | fluorescence lifetime (in Cc1ccccc1): 13 ns | fluorescence lifetime (in ClCCl): 14.6 ns

Structure (SMILES): c1ccc(/C(=C(\c2ccccc2)c2cc(-c3ccccc3)ccc2-c2ccc(-c3ccccc3)cc2)c2cc(-c3ccccc3)ccc2-c2ccc(-c3ccccc3)cc2)cc1
fluorescence lifetime (in C1CCOC1): 7.9 ns
